Measurements from US12077503B2, “Substituted cyclic amides and their use as herbicides” (FMC CORPORATION, priority 2015, dated 2024).

Assays:
Format in all cases: in vivo
[1] = test system: barnyardgrass (Echinochloa crus-galli); assay: Test G Pre-Emergence Protocol; conditions: Echinochloa crus-galli, pre-emergence, 312 h, evaluated after 13 days
Procedure, shortened: (§1)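 Spraying took place one day after sowing, at 15.625, 62.5 or 250 g/ha, using an acetone/water (50:50) spray solution containing 0.5% Tween 20. Plants were kept under glasshouse conditions (24/16 °C, 14 h light, 65% humidity, watered twice daily), and injury was rated 0–100 at day 13.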

corn (Zea mays) [2] = assay: Test G Pre-Emergence Protocol; conditions: Zea mays, pre-emergence, 312 h, evaluated after 13 days
Procedure, shortened: as §1

[3] = test system: giant foxtail (Setaria faberi); assay: Test G Pre-Emergence Protocol; conditions: Setaria faberi, pre-emergence, 312 h, evaluated after 13 days
Procedure, shortened: as §1

[4] = test system: ivy-leaved morning glory (Ipomoea hederacea); assay: Test G Pre-Emergence Protocol; conditions: Ipomoea, pre-emergence, 312 h, evaluated after 13 days
Procedure, shortened: as §1

[5] = test system: redroot pigweed (Amaranthus retroflexus); assay: Test G Pre-Emergence Protocol; conditions: Amaranthus retroflexus, pre-emergence, 312 h, evaluated after 13 days
Procedure, shortened: as §1

[6] = test system: velvetleaf (Abutilon theophrasti); assay: Test G Pre-Emergence Protocol; conditions: Abutilon theophrasti, pre-emergence, 312 h, evaluated after 13 days
Procedure, shortened: as §1

[7] = test system: barnyardgrass (Echinochloa crus-galli); assay: Test G Post-Emergence Protocol; conditions: Echinochloa crus-galli, post-emergence, 312 h
Procedure, shortened: (§2)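 Eight days post-sowing, plants received a spray of test compound (acetone/water 50:50, 0.5% Tween 20) at 15.625, 62.5 or 250 g/ha. Glasshouse regime thereafter: 24/16 °C, 14 h light, 65% humidity. Assessment after 13 days on a 0–100 damage scale.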

corn (Zea mays) [8] = assay: Test G Post-Emergence Protocol; conditions: Zea mays, post-emergence, 312 h
Procedure, shortened: as §2

[9] = test system: giant foxtail (Setaria faberi); assay: Test G Post-Emergence Protocol; conditions: Setaria faberi, post-emergence, 312 h
Procedure, shortened: as §2

[10] = test system: ivy-leaved morning glory (Ipomoea hederacea); assay: Test G Post-Emergence Protocol; conditions: Ipomoea, post-emergence, 312 h
Procedure, shortened: as §2

[11] = test system: redroot pigweed (Amaranthus retroflexus); assay: Test G Post-Emergence Protocol; conditions: Amaranthus retroflexus, post-emergence, 312 h
Procedure, shortened: as §2

[12] = test system: velvetleaf (Abutilon theophrasti); assay: Test G Post-Emergence Protocol; conditions: Abutilon theophrasti, post-emergence, 312 h
Procedure, shortened: as §2

CN1C[C@@H](c2ccc(C(F)(F)F)cc2)[C@H](C(=O)Nc2cc(Cl)n[nH]2)C1=O (racemic) [Compound 1632]
10%: pest or weed control at 250 g/ha ([7]; 250 g ai/ha, evaluated after 13 days, read-out: damage to plant, Barnyardgrass (100=total damage to plant; 0=no damage to plant))
0%: pest or weed control at 15.625 g/ha ([1]; 15.625 g ai/ha, read-out: Barnyard grass damage rating (100=total damage to plant; 0=no damage to plant)) | pest or weed control at 62.5 g/ha ([1]; 62.5 g ai/ha, 100=total damage to plant, 0=no damage to plant, read-out: plant damage rating, Barnyardgrass) | pest or weed control at 250 g/ha ([1]; 250 g ai/ha, read-out: Barnyardgrass damage rating (100=total damage to plant; 0=no damage to plant)) | plant injury at 15.625 g/ha (corn (Zea mays) [2]; 15.625 g ai/ha, read-out: Corn damage rating (100=total damage to plant; 0=no damage to plant)) | plant injury at 62.5 g/ha (corn (Zea mays) [2]; 62.5 g ai/ha, 100=total damage to plant, 0=no damage to plant, read-out: plant damage rating, Corn) | plant injury at 250 g/ha (corn (Zea mays) [2]; 250 g ai/ha, read-out: Corn damage rating (100=total damage to plant; 0=no damage to plant)) | pest or weed control at 15.625 g/ha ([3]; 15.625 g ai/ha, read-out: Foxtail, Giant damage rating (100=total damage to plant; 0=no damage to plant)) | pest or weed control at 62.5 g/ha ([3]; 62.5 g ai/ha, 100=total damage to plant, 0=no damage to plant, read-out: plant damage rating, Foxtail, Giant) | pest or weed control at 250 g/ha ([3]; 250 g ai/ha, read-out: Foxtail, Giant damage rating (100=total damage to plant; 0=no damage to plant)) | pest or weed control at 15.625 g/ha ([4]; 15.625 g ai/ha, read-out: Morning-glory, Ivy-leaved damage rating (100=total damage to plant; 0=no damage to plant)) | pest or weed control at 62.5 g/ha ([4]; 62.5 g ai/ha, 100=total damage to plant, 0=no damage to plant, read-out: plant damage rating, Morningglory, Ivy-leaved) | pest or weed control at 250 g/ha ([4]; 250 g ai/ha, read-out: Morningglory, Ivy-leaved damage rating (100=total damage to plant; 0=no damage to plant)) | pest or weed control at 15.625 g/ha ([5]; 15.625 g ai/ha, read-out: Pigweed, Redroot damage rating (100=total damage to plant; 0=no damage to plant)) | pest or weed control at 62.5 g/ha ([5]; 62.5 g ai/ha, 100=total damage to plant, 0=no damage to plant, read-out: plant damage rating, Pigweed, Redroot) | pest or weed control at 250 g/ha ([5]; 250 g ai/ha, read-out: Pigweed, Redroot damage rating (100=total damage to plant; 0=no damage to plant)) | pest or weed control at 15.625 g/ha ([6]; 15.625 g ai/ha, read-out: Velvetleaf damage rating (100=total damage to plant; 0=no damage to plant)) | pest or weed control at 62.5 g/ha ([6]; 62.5 g ai/ha, 100=total damage to plant, 0=no damage to plant, read-out: plant damage rating, Velvetleaf) | pest or weed control at 250 g/ha ([6]; 250 g ai/ha, read-out: Velvetleaf damage rating (100=total damage to plant; 0=no damage to plant)) | pest or weed control at 15.625 g/ha ([7]; 15.625 g ai/ha, evaluated after 13 days (100=total damage to plant; 0=no damage to plant), read-out: Barnyardgrass damage rating) | pest or weed control at 62.5 g/ha ([7]; 62.5 g ai/ha, evaluated after 13 days, read-out: Barnyardgrass damage rating (100=total damage to plant; 0=no damage to plant)) | plant injury at 15.625 g/ha (corn (Zea mays) [8]; 15.625 g ai/ha, evaluated after 13 days (100=total damage to plant; 0=no damage to plant), read-out: Corn damage rating) | plant injury at 62.5 g/ha (corn (Zea mays) [8]; 62.5 g ai/ha, evaluated after 13 days, read-out: Corn damage rating (100=total damage to plant; 0=no damage to plant)) | plant injury at 250 g/ha (corn (Zea mays) [8]; 250 g ai/ha, evaluated after 13 days, read-out: damage to plant, Corn (100=total damage to plant; 0=no damage to plant)) | pest or weed control at 15.625 g/ha ([9]; 15.625 g ai/ha, evaluated after 13 days (100=total damage to plant; 0=no damage to plant), read-out: Foxtail, Giant damage rating) | pest or weed control at 62.5 g/ha ([9]; 62.5 g ai/ha, evaluated after 13 days, read-out: Foxtail, Giant damage rating (100=total damage to plant; 0=no damage to plant)) | pest or weed control at 15.625 g/ha ([10]; 15.625 g ai/ha, evaluated after 13 days (100=total damage to plant; 0=no damage to plant), read-out: Morningglory, Ivy-leaved damage rating) | pest or weed control at 62.5 g/ha ([10]; 62.5 g ai/ha, evaluated after 13 days, read-out: Morningglory, Ivy-leaved damage rating (100=total damage to plant; 0=no damage to plant)) | pest or weed control at 250 g/ha ([10]; 250 g ai/ha, evaluated after 13 days, read-out: damage to plant, Morningglory, Ivy-leaved (100=total damage to plant; 0=no damage to plant)) | pest or weed control at 15.625 g/ha ([11]; 15.625 g ai/ha, evaluated after 13 days (100=total damage to plant; 0=no damage to plant), read-out: Pigweed, Redroot damage rating) | pest or weed control at 62.5 g/ha ([11]; 62.5 g ai/ha, evaluated after 13 days, read-out: Pigweed, Redroot damage rating (100=total damage to plant; 0=no damage to plant)) | pest or weed control at 15.625 g/ha ([12]; 15.625 g ai/ha, evaluated after 13 days (100=total damage to plant; 0=no damage to plant), read-out: Velvetleaf damage rating) | pest or weed control at 62.5 g/ha ([12]; 62.5 g ai/ha, evaluated after 13 days, read-out: Velvetleaf damage rating (100=total damage to plant; 0=no damage to plant)) | pest or weed control at 250 g/ha ([12]; 250 g ai/ha, evaluated after 13 days, read-out: damage to plant, Velvetleaf (100=total damage to plant; 0=no damage to plant))
20%: pest or weed control at 250 g/ha ([9]; 250 g ai/ha, evaluated after 13 days, read-out: damage to plant, Foxtail, Giant (100=total damage to plant; 0=no damage to plant)) | pest or weed control at 250 g/ha ([11]; 250 g ai/ha, evaluated after 13 days, read-out: damage to plant, Pigweed, Redroot (100=total damage to plant; 0=no damage to plant))
